From patent US5274141A, “Designed quinone- and hydroquinone-containing cyclic enediyneols and enediyneones having DNA cleaving and cytotoxic properties” (The Scripps Research Institute, priority 1992, dated 1993)
Where two headings read alike, the source gives them in different places.

Key:
[1] = test system: Normal Human Dermal Fibroblast (NHDF); test: Sulforhodamine B cytotoxicity assay, NHDF; type: cell-based; conditions: for toxicity to NHDF cells compared: compared with well known anticancer drugs
Text: (§1) In addition to the DNA cleavage screening already discussed, several of the before-described compounds were screened against a panel of twelve cancerous cell lines as target cells and four "normal" cell preparations. This screening utilized a sulforhodamine B cytotoxicity assay as discussed below.
(§2) SULFORHODAMINE B CYTOTOXICITY ASSAY
(§3) 1. Preparation of target cells in 96-well plates
(§4) 2. Preparation of sample drugs and toxic control
(§5) 3. Addition of Sample Drugs, Compounds and Controls to 96-well Plates
(§6) f. Incubate (37° C., 5-10 percent CO2 in humidified incubator) plates for a total of 72 hours. Check plates at 24 hour intervals microscopically for signs of cytotoxicity.
(§7) IC50 values; i.e., the concentration of Compound required to kill one-half of the treated cells, where then calculated.
(§8) The cell lines assayed are listed below along with their respective sources:
(§9) Separate control studies were also carried out using the following well known anticancer drugs with the following IC50 values for NHDF and cancer cells.

[2] = test system: Human Mammary Epithelial Cells (HMEC); test: Sulforhodamine B cytotoxicity assay, HMEC; type: cell-based; conditions: normal, 72 hours
Text: as §1, §2, §3, §4, §5, §6, §7
(§10) The cell lines assayed are listed below along with their respective sources: […]

[3] = test system: Normal Human Epidermal Keratinocytes (NHEK); test: Sulforhodamine B cytotoxicity assay, NHEK; type: cell-based; conditions: 72 hours
Text: as §1, §2, §3, §4, §5, §6, §7, §10

[4] = test system: Chinese Hamster Ovary (CHO); test: Sulforhodamine B cytotoxicity assay, CHO; type: cell-based; conditions: Cricetulus griseus, normal, 72 hours
Text: as §1, §2, §3, §4, §5, §6, §7, §10

SK-Mel-28 (Melanoma) = test: Sulforhodamine B cytotoxicity assay, SK-Mel-28; type: cell-based; conditions: Homo sapiens, 72 hours
Text: as §1, §2, §3, §4, §5, §6, §7, §10

[5] = test system: Capan-1 (Pancreatic Carcinoma); test: Sulforhodamine B cytotoxicity assay, Capan-1; type: cell-based; conditions: Homo sapiens, 72 hours
Text: as §1, §2, §3, §4, §5, §6, §7, §10

H-322 (Lung Carcinoma) = test: Sulforhodamine B cytotoxicity assay, H-322; type: cell-based; conditions: Homo sapiens, NCI-H322, 72 hours
Text: as §1, §2, §3, §4, §5, §6, §7, §10

[6] = test system: UCLA P-3 (Lung Carcinoma); test: Sulforhodamine B cytotoxicity assay, UCLA P-3; type: cell-based; conditions: Homo sapiens, 72 hours
Text: as §1, §2, §3, §4, §5, §6, §7, §10

MCF-7 (Breast Carcinoma) = test: Sulforhodamine B cytotoxicity assay, MCF-7; type: cell-based; conditions: Homo sapiens, MCF7, 72 hours
Text: as §1, §2, §3, §4, §5, §6, §7, §10

[7] = test system: Ovcar-3 (Ovarian Carcinoma); test: Sulforhodamine B cytotoxicity assay, Ovcar-3; type: cell-based; conditions: Homo sapiens, 72 hours
Text: as §1, §2, §3, §4, §5, §6, §7, §10

HT-29 (Colon Carcinoma) = test: Sulforhodamine B cytotoxicity assay, HT-29; type: cell-based; conditions: Homo sapiens, 72 hours
Text: as §1, §2, §3, §4, §5, §6, §7, §10

[8] = test system: HL-60 (Promyeocytic Leukemia); test: Sulforhodamine B cytotoxicity assay, HL-60; type: cell-based; conditions: Homo sapiens, 72 hours
Text: as §1, §2, §3, §4, §5, §6, §7, §10

Molt-4 (T-Cell Leukemia) = test: Sulforhodamine B cytotoxicity assay, Molt-4; type: cell-based; conditions: Homo sapiens
Text: as §1, §2, §3, §4, §5, §6, §7, §10

P-388 (Mouse Leukemia) = test: Sulforhodamine B cytotoxicity assay, P-388; type: cell-based; conditions: P388, 72 hours
Text: as §1, §2, §3, §4, §5, §6, §7, §10

φX174 form I DNA = test: Cleavage of cell-free supercoiled DNA, agarose gel electrophoresis; type: biochemical; conditions: pH 7.4, 37° C., 15 hours
Experimental: FIG. 1 is a photograph of an ethidium bromide stained 1 percent agarose electrophoresis gel o that illustrates the cleavage of .phi.X174 form I DNA (100 μM base pairs) by Compounds 7, 8, 9, 10 and 12 at 50-5000 μM after 15 hours at 37° C. at a pH value of 7.4 in 50 […]. […] Lanes 2-10 correspond to the following: Lane 2: Compound 12 (100 μM); Lane 3: Compound 10 (100 μM); Lane 4: Compound 7 (100 μM); Lane 5: Compound 8 (100 μM); Lanes 6-10: Compound 9 (50, 100, 500, 1000 and 5000 μM). Forms I, II and III shown to the left of the photograph show the relative migrations of supercoiled (form I) relaxed (form II) and linear (form III) DNA, respectively.
To a vial containing 9 microliters of a cell-free .phi.X174 Type I double-stranded DNA in pH 7.4 […] Tris-HCl buffer was added 1 microliter of a 1.0 millimolar or other appropriate ethanol solution of Compounds 7, 8, 9, 10 and 12.
The vials were then placed in a 37° C. oven for 15 hours. A 2.0 microliter portion of glycerol loading buffer solution containing bromothymol blue indicator was added to each vial. A 10 microliter aliquot was then drawn from each. Gel electrophoresis analysis of the aliquots was performed using a 1.0 percent agarose gel with ethidium bromide run at 115 volts for one hour. DNA cleavage was indicated by the formation of Type II DNA, which was detected by visual inspection of the gel under 310 nanometer ultraviolet light.

[9] = Cycloaromatization studies using 1,4-cyclohexadiene in toluene; type: physicochemical
Text: These reactions provided Compounds 11-13 as shown schematically in Scheme 2, below. [drawing 9]

[10] = Stability observed during synthesis; type: physicochemical
Experimental: Finally, PCC oxidation (4.0 equivalents PCC, 4Å molecular sieves in CH2 Cl2 at 25° C. for 0.5 hour) of Compound 8 afforded the tricarbonyl Compound 10 in 49 percent yield as step i.

Cancer Cells = test: cells; type: cell-based, human or mouse
Text: as §1, §2, §3, §4, §5, §6, §7, §8, §9

[11] = test system: SIHA (Cervical Carcinoma); test: Sulforhodamine B cytotoxicity assay, SIHA; type: cell-based; conditions: Homo sapiens, 72 hours
Text: as §1, §2, §3, §4, §5, §6, §7, §10

786-0 (Renal Carcinoma) = test: Sulforhodamine B cytotoxicity assay, 786-0; type: cell-based; conditions: Homo sapiens, 72 hours
Text: as §1, §2, §3, §4, §5, §6, §7, §10

[12] = Homo sapiens, normal, 72 hours, read-out: IC50 Values
[13] = MOLT-4, 72 hours, read-out: IC50 Values
[14] = Molt-4 leukemia cells, read-out: IC50
[15] = 55° C., 1,4-cyclohexadiene in toluene
[16] = Homo sapiens, control anticancer drugs, read-out: Range of Average IC50 Values, NHDF
[17] = control anticancer drugs, read-out: Range of Average IC50 Values, NHDF
[18] = 110° C., 1,4-cyclohexadiene in toluene

Compound	IC50 [1, 12]	IC50 [2]	IC50 [3]	IC50 [4]	IC50 (SK-Mel-28 (Melanoma))	IC50 [5]	IC50 (H-322 (Lung Carcinoma))	IC50 [6]	IC50 (MCF-7 (Breast Carcinoma))	IC50 [7]	IC50 (HT-29 (Colon Carcinoma))	IC50 [8]	IC50 (Molt-4 (T-Cell Leukemia); [13])	DNA cleaving activity (φX174 form I DNA)	further results
CC1=C(C)C(=O)C2=C(C#CCCCC(O)C#C2)C1=O (centres unmarked) [Compound 8]	3.1 µM	3.1 µM	3.1 µM	3.2 µM	6.3 µM	3.1 µM	13 µM	6.3 µM	6.3 µM	6.3 µM	6.3 µM	7.8 µM	0.1 µM	significant DNA damaging properties	toxicity to NHDF cells compared [1]: similarly toxic to the normal NHDF and cancer cells except Molt-4 cells; IC50 (Molt-4 (T-Cell Leukemia); [14]): 0.5 µM; IC50 (P-388 (Mouse Leukemia)): 2 µM; half life (t1/2) of cycloaromatization [9, 15]: 2.6 h; thermal stability [10]: thermally labile
CC(=O)O[C@H]1C(=O)[C@@]2(C)[C@H]([C@H](OC(=O)c3ccccc3)[C@]3(O)C[C@H](OC(=O)[C@H](O)[C@@H](NC(=O)c4ccccc4)c4ccccc4)C(C)=C1C3(C)C)[C@]1(OC(C)=O)CO[C@@H]1C[C@@H]2O [Taxol, reference compound]															IC50 [1, 16]: 0.01 µM
COc1cccc2c1C(=O)c1c(O)c3c(c(O)c1C2=O)C[C@@](O)(C(=O)CO)C[C@@H]3O[C@H]1C[C@H](N)[C@H](O)[C@H](C)O1 [Doxorubicin, reference compound]															IC50 (Cancer Cells; control anticancer drugs, cancer cells, read-out: Range of Average IC50 Values, Cancer Cells): 0.00016 to 0.098 µM
Calicheamicin [reference compound]															IC50 [1, 17]: 0.0025 µM
CC1=C(C)C(=O)c2cc3c(cc2C1=O)CCCC3O (centres unmarked) [Compound 12]														minor activity	
N.N.[Cl][Pt][Cl] [Cis-Platin, reference compound]															IC50 [1, 17]: 50 µM
CC1=C(C)C(=O)C2=C(C#CCCCC(=O)C#C2)C1=O [Compound 10]	100 µM	100 µM	100 µM	100 µM	100 µM	100 µM	100 µM	50 µM	13 µM	25 µM	50 µM	25 µM	1.19 µM	significant DNA damaging properties	toxicity to NHDF cells compared [1]: less toxic than those well known anticancer drugs against the NHDF cells; IC50 [11]: 13 µM; IC50 (786-0 (Renal Carcinoma)): 50 µM; IC50 (Molt-4 (T-Cell Leukemia); [14]): 1 µM; potency in cytotoxicity studies (Cancer Cells; variety of cell lines, in words): most impressive results; half life (t1/2) of cycloaromatization [9, 15]: 0.533 h; reactivity in cycloaromatization studies ([9]; series 7-10): most reactive member of the series 7-10
COC1=C(C(=O)O)[C@H](C)[C@@]23O[C@]24c2cc(O)c5c(c2N[C@H]3C#C/C=C\C#C[C@H]14)C(=O)c1c(O)ccc(O)c1C5=O [Dynemicin A, reference compound]															IC50 [1, 17]: 0.01 µM
CN(Cc1cnc2nc(N)nc(N)c2n1)c1ccc(C(=O)N[C@@H](CCC(=O)O)C(=O)O)cc1 [Methotrexate, reference compound]															IC50 [1, 16]: 50 µM
N[C@@H](Cc1ccc(N(CCCl)CCCl)cc1)C(=O)O [Melphelan, reference compound]															IC50 ([1]; Homo sapiens, read-out: Range of Average IC50 Values, NHDF): 100 µM
Cc1c(C)c(O)c2c(c1O)C#CCCCC(O)C#C2 (centres unmarked) [Compound 9]	25 µM	25 µM	13 µM	13 µM	25 µM	13 µM	25 µM	25 µM	25 µM	25 µM	25 µM	1.6 µM	50 µM	significant DNA damaging properties	IC50 (P-388 (Mouse Leukemia)): 3.1 µM; cycloaromatization behaviour [9, 18]: complicated kinetics due to ease of conversion to Compound 8 even under oxygen extrusion conditions, but seems quite stable prior to oxidation; air sensitivity [10]: air-sensitive; stability ([10]; neutral conditions): relatively stable
Cc1c(C)c(OC(=O)C(C)(C)C)c2c(c1OC(=O)C(C)(C)C)C#CCCCC(O)C#C2 (centres unmarked) [Compound 7]	100 µM	100 µM	25 µM	100 µM	100 µM	13 µM	100 µM	13 µM	50 µM	13 µM	13 µM	100 µM	100 µM	no DNA cleaving activity	IC50 (P-388 (Mouse Leukemia)): 13 µM; half life (t1/2) of cycloaromatization [9, 18]: 74 h; stability ([10]; ambient temperature): quite stable
